US20060233845A1, “Micro/nanoparticle obtained from lipid-containing marine organisms for use in pharmaceutics and cosmetics” (priority 2002, published 2006)

Experiments:
[1] = Kreitlow, Dissertation Greifswald 2000; cited from earlier work
MRSA = MRSA growth in vitro; assay type: cell-based, Staphylococcus aureus; conditions: natural substances after the inventive method

## CCCCCC(O)/C=C/C=C\CCCCCCCC(=O)O (stereo not shown) [coriolic acid]
[1]
  antibacterial activity: antibacterial activity

## CCCCC/C=C/C=C/C(O)CCCCCCCC(=O)O (stereo not shown) [dimorphecolic acid]
[1]
  antibacterial activity: antibacterial activity

## CC/C=C\C/C=C\C/C=C\CCCCCCCC(=O)O [linolenic acid, Z,Z,Z-9,12,15-octadecatrienoic acid]
[1]
  antibacterial activity: antibacterial activity

## Cc1cc(O)cc2oc3cc(O)cc(O)c3c(=O)c12 [norlichexanthone]
MRSA
  growth of MRSA in vitro: inhibit MRSA-growth in vitro
